Results on ten molecules are retold here after patent US5889013A, “Pyrimidine acyclonucleoside derivatives” (priority 1994, dated 1999).

Where two headings read alike, the source gives them in different places.

One series deals with HIV-1 (HTLV-IIIB strain). The series is described as follows: Inhibitory activity for HIV-induced cytopathogenicity (MT-4 cells, MTT method). The settings on record: read-out: 50% inhibitory concentration of HIV infection. Format: cell-based. The procedure:
(§1) In RPMI 1640 culture medium supplemented with 10% heat-inactivated fetal bovine serum, 2 mM of L-glutamine, 100 U/mL of penicillin G and 100 μg/mL of streptomycin, MT-4 cells (HTLV-1 transformed T4-cell line) at a concentration of 1×10^4 /well in a flat-bottom, microtiter plate were infected with 500 TCID50 of HIV-1 (HTLV-IIIB strain). Immediately after virus infection, sample serially diluted with culture medium from stock solution prepared in dimethyl sulfoxide was added to each well in quadriplicate. After 6 days incubation at 37° C., the viability of mock and HIV-infected cells was determined by the 3-(4,5-dimethylthiazol-2-yl)-2,5-diphenyltetrazolium bromide (MTT) method. And also, the cytotoxicity of sample to MT-4 cells not infected with HIV was assessed in parallel with its antiviral activity under the same way as above.
On the technique in general: Damage to the host cells serves as the signal in cytopathic effect assays.

Series [1] is described as follows: Cytotoxicity to MT-4 cells not infected with HIV (MTT method). It counts as cell-based. As to conditions: human. The procedure: as §1
(Formazan colour is commonly taken as a measure of viable cells.)

Series [2] deals with human immunodeficiency virus (HIV). As to conditions: cited from earlier work; for side effects: patients, clinical use.
The mark [3] stands for this setting: Human immunodeficiency virus 1, IIIB, MT4, 144 h.
[4] abbreviates: MT-4 cells not infected with HIV, 6 days, 37° C., MTT, read-out: 50% cytotoxic concentration to MT-4 cells.

`Cc1cn([C@H]2C[C@H](N=[N+]=[N-])[C@@H](CO)O2)c(=O)[nH]c1=O` [AZT, 3'-Deoxy-3'-azidothymidine, reference compound]: in the series on HIV-1 (HTLV-IIIB strain) (setting [3]), the IC50 stood at 0.0046 µM. In addition, in series [1] (setting [4]), the CC50 at 144 h was determined as 22.7 µM. Further, the “clinical and immunological status of patients” value in series [2] (patients with AIDS and AIDS-related complex) was “proven to improve the clinical and immunological status of patients with AIDS and AIDS-related complex”. For the same molecule, the side effects result in series [2] was “serious side effects such as anemia and leukopenia”.

For the molecule `CCCCn1c([Se]c2cc(C)cc(C)c2)c(CC)c(=O)[nH]c1=O` [Compound 65, 1-butyl-6-[(3,5-dimethylphenyl)selenenyl]-5-ethyluracil], the IC50 in the series with HIV-1 (HTLV-IIIB strain) (setting [3]) turned out to be 0.003 µM. The CC50 at 144 h in series [1] (setting [4]) came out at 27.9 µM.

Turning to `CCc1c([Se]c2ccccc2)n(CCCc2ccccc2)c(=O)[nH]c1=O` [Compound 73, 5-ethyl-1-(3-phenylpropyl)-6-(phenylselenenyl)uracil], the IC50 in the series with HIV-1 (HTLV-IIIB strain) (setting [3]) was determined as 0.003 µM. Also, the CC50 at 144 h in series [1] (setting [4]) stood at 26.1 µM.

For `CCc1c([Se]c2cc(C)cc(C)c2)n(CCCc2ccccc2)c(=O)[nH]c1=O` [Compound 74, 6-[(3,5-dimethylphenyl)selenenyl]-5-ethyl-1-(3-phenylpropyl)-uracil], in the series with HIV-1 (HTLV-IIIB strain) (setting [3]), the IC50 was found to be 0.008 µM. In addition, the CC50 at 144 h in series [1] (setting [4]) is 27.7 µM.

For the molecule `CCCCn1c([Se]c2ccccc2)c(C(C)C)c(=O)[nH]c1=O` [Compound 81, 1-butyl-5-isopropyl-6-(phenylselenenyl)uracil], the IC50 in the series on HIV-1 (HTLV-IIIB strain) (setting [3]) is 0.002 µM. In series [1] (setting [4]), the CC50 at 144 h amounted to 27.1 µM.

In the case of `CCCCn1c([Se]c2cc(C)cc(C)c2)c(C(C)C)c(=O)[nH]c1=O` [Compound 83, 1-butyl-6-[(3,5-dimethylphenyl)selenenyl]-5-isopropyluracil], the IC50 in the series with HIV-1 (HTLV-IIIB strain) (setting [3]) is 0.002 µM. Moreover, in series [1] (setting [4]), the CC50 at 144 h stood at 28.2 µM.

`CC(C)c1c([Se]c2ccccc2)n(CCCc2ccccc2)c(=O)[nH]c1=O` [Compound 84, 5-isopropyl-1-(3-phenylpropyl)-6-(phenylselenenyl)uracil]: the IC50 with HIV-1 (HTLV-IIIB strain) (setting [3]) amounted to 0.008 µM. Further, the CC50 at 144 h in series [1] (setting [4]) worked out at 28 µM.

Take `Cc1cc(C)cc([Se]c2c(C(C)C)c(=O)[nH]c(=O)n2CCCc2ccccc2)c1` [Compound 86, 6-[(3,5-dimethylphenyl)selenenyl]-5-isopropyl-1-(3-phenylpropyl)-uracil]: the IC50 in the series on HIV-1 (HTLV-IIIB strain) (setting [3]) turned out to be 0.0006 µM. The CC50 at 144 h in series [1] (setting [4]) was 26.9 µM.

As to `Nc1ccn([C@H]2CC[C@@H](CO)O2)c(=O)n1` [DDC, 2',3'-dideoxycytidine, reference compound], the IC50 in the series on HIV-1 (HTLV-IIIB strain) (Human immunodeficiency virus 1, MT4, 144 h, MT-4 cells infected with 500 TCID50 HIV-1 (HTLV-IIIB strain), 6 days, 37° C., MTT) is 0.6 µM. The molecule further displayed a CC50 at 144 h in series [1] (mt-4 cells) of 17.6 µM. The side effects result in series [2] is “side effects such as peripheral neuropathy and pancreatitis”.

`O=c1[nH]cnc2c1ncn2[C@H]1CC[C@@H](CO)O1` [DDI, 2',3'-dideoxyinosine]: the side effects entry in series [2] is “side effects such as peripheral neuropathy and pancreatitis”.
